Data from patent US4174406A, “Terpenylaminoalkanol fish toxicants” (priority 1977, dated 1979).
≈ marks a conversion by molar mass, not a printed value.

Tests used:
[1] = tested on: Coho salmon; assay: Laboratory fish toxicity test (Table 1); type: in vivo, Oncorhynchus kisutch; conditions: tech, 12 C, soft water
Protocol: (§1) Fish were obtained from state and federal hatcheries and maintained prior to testing by a trained fish culturist. Fish of total length 2-5 cm were used in laboratory tests while for outdoor tests small fish (4-6 cm in length) and larger carp and buffalo (Ictiobus cyprinellus) were used.
(§2) In all tests 10 fish of each were exposed to selective concentrations of the toxicant. Mortalities were observed and recorded at 1,2 and 6 hours on the first day and once daily thereafter, during 96 hour exposure.
(§3) Laboratory tests were also conducted in soft water 12° C. wherein the toxicant was evaluated against fifteen species of fish including both cold and warm water varieties. In Table 1, the LC 50 toxicity values for N-(2-hydroxyethyl) digeranylamine is shown for various species. LC50 is defined as the amount (mg/liter) of toxicant required to kill 50 percent of the particular fish species at 95% confidence interval.

[2] = tested on: Rainbow trout; assay: Laboratory fish toxicity test (Table 1); type: in vivo, Salmo gairdneri; conditions: tech, 12 C, soft water
Protocol: as §1, §2, §3

[3] = tested on: Brown trout; assay: Laboratory fish toxicity test (Table 1); type: in vivo, Salmo trutta; conditions: tech, 12 C, soft water
Protocol: as §1, §2, §3

[4] = tested on: Goldfish; assay: Laboratory fish toxicity test (Table 1); type: in vivo, Carassius auratus; conditions: tech, 12 C, soft water
Protocol: as §1, §2, §3

[5] = tested on: Carp; assay: Laboratory fish toxicity test (Table 1); type: in vivo, Cyprinus carpio; conditions: tech, 12 C, soft water
Protocol: as §1, §2, §3

[6] = tested on: Fathead minnow; assay: Laboratory fish toxicity test (Table 1); type: in vivo, Pimephales promelas; conditions: tech, 12 C, soft water
Protocol: as §1, §2, §3

[7] = tested on: White sucker; assay: Laboratory fish toxicity test (Table 1); type: in vivo, Catostomus commersoni; conditions: tech, 12 C, soft water
Protocol: as §1, §2, §3

[8] = tested on: Green sunfish; assay: Laboratory fish toxicity test (Table 1); type: in vivo, Lepomis cyanellus; conditions: tech, 12 C, soft water
Protocol: as §1, §2, §3

[9] = tested on: Smallmouth bass; assay: Laboratory fish toxicity test (Table 1); type: in vivo, Micropterus dolomieui; conditions: tech, 12 C, soft water
Protocol: as §1, §2, §3

[10] = tested on: Largermouth bass; assay: Laboratory fish toxicity test (Table 1); type: in vivo, Micropterus salmoides; conditions: tech, 12 C, soft water
Protocol: as §1, §2, §3

[11] = tested on: Carp; assay: Outdoor plastic pool test (Table 3); type: in vivo, Cyprinus carpio; conditions: for % kill: 50% formulation (hydrochloride salt); for survival (in words): larger carp (19 cm)
Protocol: (§4) N-(2-hydroxyethyl) digeranylamine was tested as a selective fish toxicant in outdoor pools stocked with various fish species and lined with black plastic using 50% water soluble formulations (hydrochloride salt). The formulation was added to each of four pools of 4,000-liter capacity at concentrations of 0.10, 0.15, 0.20, and 0.30 mg/liter. Another pool containing the same number, size, and species of fish served as a control. The test water had algal blooms, a pH of about 8.5, and a total hardness of about 200 mg/liter as CaCo3. The temperature was cool enough (15°-16°C.) to permit the use of trout.
as §1, §2
(§5) Outdoor pool tests were conducted using 50% formulation of the toxicant N-(2-hydroxyethyl) digeranylamine as indicated in Example 8. […] If selective control of white sucker and common carp is desired in an environment which includes rainbow trout, one should employ an effective concentration of toxicant which is at least as great as 0.05 mg/liter but less than 0.1 mg/liter. As a practical fishery practice in the northern United States and Canada, rainbow trout are not usually stocked in bodies of water containing the common carp species; the habitat conditions including water temperature and available oxygen of these species are usually quite different. Common carp and rainbow trout have quite different oxygen and temperature requirements and these differences generally preclude both species cohabitating under natural conditions. In this case the useful range to control common carp and white sucker can be much broader, i.e. 0.1 to 0.3 mg/liter.

[12] = tested on: Fathead minnow; assay: Outdoor plastic pool test (Table 3); type: in vivo, Pimephales promelas; conditions: for % kill: 96 hour, 50% formulation (hydrochloride salt)
Protocol: as §4, §1, §2, §5

[13] = tested on: Largemouth buffalo; assay: Outdoor plastic pool test (Table 3); type: in vivo, Ictibous cyprinellus; conditions: 96 hour, 50% formulation (hydrochloride salt)
Protocol: as §4, §1, §2, §5

[14] = tested on: Largemouth bass; assay: Outdoor plastic pool test (Table 3); type: in vivo, Micropterus salmoides; conditions: for % kill: 96 hour, 50% formulation (hydrochloride salt)
Protocol: as §4, §1, §2, §5

[15] = tested on: Green sunfish; assay: Influence of pH on toxicity to green sunfish in soft water (Table 4); type: in vivo, Lepomis cyanellus; conditions: tech, 12 C
Protocol: To determine the influence of pH of the water used on the toxicity of the terpenylaminoalkanols evaluated, experiments were conducted with green sunfish (Lepomis cyanellus) using soft water at 12° C. and chemically buffered over the range of pH 6 to pH 9.

[16] = tested on: Chinook, coho salmon, rainbow trout, goldfish, fathead, minnow, banded killfish, and walleye; assay: Relative resistance of fish species in laboratory tests; type: in vivo; conditions: soft water, 12 C
Protocol: as §3

[17] = 96 hours, listed as N-(2-hydroxyethyl) Digeranylamine, 5760 min

With `CC(C)=CCC/C(C)=C/CN(C/C=C(\C)CCC=C(C)C)CCO` [N-(2-hydroxyethyl) digeranylamine] the LC50 ([1]; 3 hours) was 0.320 µg/mL (≈ 0.959 µM), the LC50 ([1]; 6 hours) was 0.240 µg/mL (≈ 0.72 µM) and the LC50 ([1]; 24 hours) was 0.200 µg/mL (≈ 0.6 µM). It also gave an LC50 ([1]; 96 hours) of 0.142 µg/mL (≈ 0.426 µM), an LC50 ([2]; 3 hours) of 0.220 µg/mL (≈ 0.66 µM) and an LC50 ([2]; 6 hours) of 0.189 µg/mL (≈ 0.567 µM). The LC50 ([2]; 24 hours) was 0.187 µg/mL (≈ 0.561 µM), the LC50 ([2]; 96 hours) was 0.136 µg/mL (≈ 0.408 µM) and the LC50 ([3]; 3 hours) was 0.0955 µg/mL (≈ 0.286 µM). The LC50 ([3]; 6 hours) was 0.0742 µg/mL (≈ 0.222 µM), the LC50 ([3]; 24 hours) was 0.0700 µg/mL (≈ 0.21 µM) and the LC50 ([3]; 96 hours) was 0.0647 µg/mL (≈ 0.194 µM). The LC50 ([4]; 24 hours) was 0.961 µg/mL (≈ 2.88 µM), the LC50 ([4]; 96 hours) was 0.290 µg/mL (≈ 0.869 µM) and the LC50 ([5]; 6 hours) was 1.34 µg/mL (≈ 4.02 µM). It also gave an LC50 ([5]; 24 hours) of 0.0718 µg/mL (≈ 0.215 µM), an LC50 ([5]; 96 hours, 5760 min) of 0.050 µg/mL (≈ 0.15 µM) and an LC50 [5, 17] of 0.0507 µg/mL (≈ 0.152 µM). The LC50 ([6]; 6 hours) was 1.55 µg/mL (≈ 4.65 µM), the LC50 ([6]; 24 hours) was 0.560 µg/mL (≈ 1.68 µM) and the LC50 ([6]; 96 hours) was 0.303 µg/mL (≈ 0.908 µM). It also gave an LC50 ([7]; 3 hours) of 0.540 µg/mL (≈ 1.62 µM), an LC50 ([7]; 6 hours) of 0.136 µg/mL (≈ 0.408 µM) and an LC50 ([7]; 24 hours) of 0.0690 µg/mL (≈ 0.207 µM). It also gave an LC50 ([8]; 24 hours) of 0.640 µg/mL (≈ 1.92 µM), an LC50 ([8]; 96 hours) of 0.640 µg/mL (≈ 1.92 µM) and an LC50 ([9]; 3 hours) of 1.36 µg/mL (≈ 4.08 µM). It also gave an LC50 ([9]; 6 hours) of 0.480 µg/mL (≈ 1.44 µM), an LC50 ([9]; 24 hours) of 0.420 µg/mL (≈ 1.26 µM) and an LC50 ([9]; 96 hours, 5760 min) of 0.37 µg/mL (≈ 1.11 µM). For the same molecule, the LC50 [9, 17] was 0.237 µg/mL (≈ 0.711 µM), the LC50 ([10]; 3 hours) was 1.40 µg/mL (≈ 4.2 µM) and the LC50 ([10]; 6 hours) was 0.530 µg/mL (≈ 1.59 µM). For the same molecule, the LC50 ([10]; 24 hours) was 0.380 µg/mL (≈ 1.14 µM), the LC50 ([10]; 96 hours) was 0.360 µg/mL (≈ 1.08 µM) and the “% kill” value ([11]; carp (large), 0.10 mg/l, 96 hour) was 27%. The “% kill” value ([11]; carp (large), 0.15 mg/l, 96 hour) was 66%, the “% kill” value ([11]; carp (large), 0.20 mg/l, 96 hour) was 100% and the “% kill” value ([11]; carp (large), 0.30 mg/l, 96 hour) was 100%. The “% kill” value ([11]; carp (small), 0.10 mg/l, 96 hour) was 100%, the “% kill” value ([11]; carp (small), 0.15 mg/l, 96 hour) was 100% and the “% kill” value ([11]; carp (small), 0.20 mg/l, 96 hour) was 100%. The “% kill” value ([11]; carp (small), 0.30 mg/l, 96 hour) was 100%, the “survival (in words)” value ([11]; 0.2 mg/liter or higher) was “none survived” and the “survival (in words)” value ([11]; 0.10 and 0.15 mg/liter) was “Some white suckers and larger carp (19 cm) survived”. For the same molecule, the “kill (in words)” value ([11]; small common carp (4-6 cm), above 0.10 mg/l, 96 hour) was “completely eliminated at all concentrations above 0.10 mg/l”, the “% kill” value ([12]; 0.10 mg/l) was 0% and the “% kill” value ([12]; 0.15 mg/l) was 10%. For the same molecule, the “% kill” value ([12]; 0.20 mg/l) was 10%, the “% kill” value ([12]; 0.30 mg/l) was 80% and the “survival (in words)” value ([12]; fathead minnows, 0.30 mg/liter and lower, 50% formulation) was “died at 0.30 mg/liter of toxicant, but all survived lower concentrations”. The “% kill” value ([13]; 0.10 mg/l) was 0%, the “% kill” value ([13]; 0.15 mg/l) was 20% and the “% kill” value ([13]; 0.20 mg/l) was 20%. For the same molecule, the “% kill” value ([13]; 0.30 mg/l) was 100%, the “% kill” value ([14]; 0.10 mg/l) was 0% and the “% kill” value ([14]; 0.15 mg/l) was 0%. For the same molecule, the “% kill” value ([14]; 0.20 mg/l) was 0%, the “% kill” value ([14]; 0.30 mg/l) was 0% and the “survival (in words)” value ([14]; largemouth bass, 0.3 mg/liter, 50% formulation) was “complete survival”. For the same molecule, the LC50 ([15]; pH 6.0, 3 hours) was 6.34 µg/mL (≈ 19 µM), the LC50 ([15]; pH 6.0, 6 hours) was 5.00 µg/mL (≈ 15 µM) and the LC50 ([15]; pH 6.0, 24 hours) was 2.84 µg/mL (≈ 8.51 µM). It also gave an LC50 ([15]; pH 6.0, 96 hours) of 1.85 µg/mL (≈ 5.55 µM), an LC50 ([15]; pH 7.5, 3 hours) of 2.47 µg/mL (≈ 7.4 µM) and an LC50 ([15]; pH 7.5, 6 hours) of 1.64 µg/mL (≈ 4.92 µM). It also gave an LC50 ([15]; pH 7.5, 24 hours) of 1.00 µg/mL (≈ 3 µM), an LC50 ([15]; pH 7.5, 96 hours) of 0.829 µg/mL (≈ 2.49 µM) and an LC50 ([15]; pH 8.0, 24 hours) of 0.520 µg/mL (≈ 1.56 µM). The LC50 ([15]; pH 8.0, 96 hours) was 0.520 µg/mL (≈ 1.56 µM), the LC50 ([15]; pH 9.0, 3 hours) was 0.870 µg/mL (≈ 2.61 µM) and the LC50 ([15]; pH 9.0, 24 hours) was 0.360 µg/mL (≈ 1.08 µM). The LC50 ([15]; pH 9.0, 96 hours) was 0.268 µg/mL (≈ 0.803 µM) and the “resistance relative to carp or white suckers” value [16] was “more resistant to the toxicant than carp (Caprinus carpio) or white suckers (Castostmus commersoni)”.
